{
  "source": "paper PMC9658316",
  "about": "“Discovery of Mitochondrial Complex I Inhibitors as Anticancer and Radiosensitizer Drugs Based on Compensatory Stimulation of Lactate Release” (Cancers, 2022)",
  "key": {"[1]": {"test": "Cell integrity by Trypan blue exclusion", "assay_type": "cell-based", "conditions": "cancer cells (cell line not specified); 24 h after exposure; read-out: viable cancer cells (Trypan blue exclusion)", "source_text": "(§1) Mouse colorectal CT26 and breast 4T1 cancer cells as well as human cervix cancer SiHa and breast MDA-MD-231 cancer cells were acquired from ATCC where they are regularly authenticated by short tandem repeat profiling. They were stored according to the supplier’s instructions and used within 6 months after resuscitation of frozen aliquots. Cancer cells were maintained in DMEM (Life Technologies, ThermoFischer scientific, Merebelke, Belgium) supplemented with 10% heat-inactivated FBS. All cell lines were tested for mycoplasma contamination with the MycoAlert™ Mycoplasma Detection kit (#LT07-318; Lonza, Verviers, Belgium) before being used. Cell integrity was determined by the Trypan Blue exclusion method (using Bürker chambers) while cell growth was assessed by using the Presto Blue reagent (Life Technologies) according to manufacturer’s instructions.\nStill, to support the anticancer potential of complex I inhibition, we also examined the cytotoxic effects of longer exposure of intact cancer cells to reference compound aa and hit compounds ag, aj and au. […] While the nature of cell death induced by aa derivatives is beyond the scope of this manuscript, alteration in mitochondria fitness and capacity to buffer calcium could be involved as previously reported."}, "[2]": {"system": "human cervix Siha cancer cells", "test": "Growth inhibitory effects on human cancer cells (Presto Blue), SiHa vs MDA-MB-231", "assay_type": "cell-based", "conditions": "1 µM", "source_text": "as §1\nSuppl. Figure S3. Growth inhibitory effects of hit compounds on human cancer cells. MDA-M B-231 (A) and Siha (B) cancer cells were exposed to 100 nM IACS or 1 µM aa, ag, aj and au compounds; data represent the reduced extent (expressed as %) of cell viability (determined with Presto Blue) when compared with vehicle conditions (n=3).\n(also on this page, place not known: 60Growth inhibitory effects (%) MDA-MB-231 aa au 60Growth inhibitory effects (%))"}, "[3]": {"system": "colorectal CT26 cancer cells", "test": "Compound-induced L-lactate release (Assay #1), CT26", "assay_type": "cell-based, mouse", "conditions": "10 µM, 24 h exposure, L-lactate secretion above basal release", "method": "(§2) L-lactate concentration was measured in a semi-automated manner using CMA Microdialysis AB enzymatic assay and a CMA 600 analyzer (Aurora Borealis, Schoonebeek, The Netherlands) as previously described. Briefly, cells (2 × 10^5 cells per well; 3 wells/condition) were seeded in 12-well plates with 2 mL of their routine culture medium. After 24 h, medium was replaced by 500 µL of DMEM containing 10 mmol/L D-glucose and supplemented with 2 mmol/L L-glutamine and 10% dialyzed FBS (Sigma-Aldrich), in the presence of the compounds or vehicle (DMSO). The initial concentration of L-lactate in the experimental medium was also assessed by including control wells containing only cell culture medium (no cells) on each plate. After incubation for 24 h, extracellular media were collected and deproteinized by centrifugation (15 min, 10,000 rpm, 4 °C) in 10 kDa cut-off filter tubes (VWR, Avantor, Leuven, Belgium). Differences in L-lactate concentrations between control and treated cells were calculated and normalized by the protein content in each well and expressed in µmol/h/mg protein. Oxygen-consumption rate (OCR) was measured using the Seahorse XF96 plate reader as previously reported. Briefly, cells (2 × 10^4 cells per well) were first permeabilized with 1 nM Seahorse XF Plasma Membrane Permeabilizer (#102504-100; Agilent, Machelen, Belgium) and respiration was stimulated by adding 10 mM pyruvate, 5 mM malate, and 2 mM ADP. After baseline OCR determination, compounds were added (to inhibit complex I) followed by 10 mM succinate to fuel complex II and rescue the electron transport chain. In some experiments, the effects of selected hits on basal OCR were evaluated in intact cells (including in the presence of MCT1/2 inhibitor AR-C155858 [29] or methylpyruvate). OCR data were normalized according to protein content in each well.\nFigure 3 Compound-induced L-lactate release (Assay #1). Culture medium was collected after 24 h exposure to the indicated compounds (10 µM) and the amount of extracellular L-lactate release was determined in a semi-automated manner; dose-dependent effects of complex I inhibitor IACS are shown on the right (shaded bars). Bar graph depicts the extent of L-lactate secretion above the basal release as determined in the absence of any compound (n = 3, ** p < 0.01 for increased L-lactate release vs. reference compound aa)."}, "breast 4T1 cancer cells": {"system": "breast 4T1 cancer cells", "test": "Growth inhibitory effects on cultured 4T1 cells (Presto Blue)", "assay_type": "cell-based, mouse", "conditions": "4T1 monolayers, 1 µM, 72 h, compared with CT26", "source_text": "as §1\n(§3) Figure 4 Mitochondrial complex I activity inhibition (Assay #2). (A–D). Graphs depict changes in O2 consumption rate (OCR) measured with the Seahorse technology on permeabilized CT26 cancer cells upon successive addition of pyruvate/malate, the indicated inhibitor and succinate. OXPHOS I inhibitor IACS was used as a control in the experiments testing reference compound aa (A), and compound aa (10µM) was used as reference for testing au, ah and at derivatives (B–D) (n = 6 per compound). (E,F). Growth inhibitory effects of cultured CT26 (E) and 4T1 […] cancer cells exposed to 100 nM IACS or 1 µM aa, ag, aj and au compounds for 72 h; data represent the reduced extent (expressed as %) of cell viability (determined with Presto Blue) when compared with vehicle conditions (n = 3)."}, "intact CT26 cancer cells": {"system": "intact CT26 cancer cells", "test": "Seahorse basal OCR and ECAR in intact (non-permeabilized) CT26 cancer cells", "assay_type": "cell-based, mouse", "conditions": "non-permeabilized CT26 cells, 10 µM", "method": "as §2\nSince other lactate transporters could be involved, we also used methylpyruvate which can bypass the need for a mitochondrial carrier and mimic the result of lactate oxidation by a mitochondrial LDH or ensure the delivery of pyruvate into the mitochondria matrix. […] In the same experiments carried out on non-permeabilized cancer cells, the extent of basal OCR inhibition in response to 10 µM aa was similar to that observed with 100 nM IACS-010759 (−52 ± 5% and −45 ± 6%, respectively) and mirrored by an increase in extracellular acidification rate (ECAR) (+36 ± 11% and +29 ± 9%, respectively)."}, "mitochondrial complex I": {"biological_target": "mitochondrial complex I (Mus musculus, UniProt P03888+Q91WD5+Q9DC70)", "test": "Seahorse OCR in permeabilized CT26 cancer cells, mitochondrial complex I inhibition (Assay #2)", "assay_type": "cell-based", "method": "as §2\n(A–D). Graphs depict changes in O2 consumption rate (OCR) measured with the Seahorse technology on permeabilized CT26 cancer cells upon successive addition of pyruvate/malate, the indicated inhibitor and succinate. […] (E,F)."}, "CT26 colon cancer cells": {"system": "CT26 colon cancer cells", "test": "Growth inhibitory effects on cultured CT26 cells (Presto Blue)", "assay_type": "cell-based, mouse", "conditions": "CT26 monolayers, 1 µM, 72 h", "source_text": "as §1, §3"}},
  "data": [
    {"smiles": "NC(=O)c1nnn(Cc2cc(Cl)c(C(=O)c3ccc(Cl)cc3)c(Cl)c2)c1N", "note": "[compound aa, carboxyamidotriazole, reference compound]", "values": [
      {"measurement": "viability at 24 h", "setting": "[1]", "result": "90.9 ± 5.1", "unit": "%"},
      {"measurement": "antiproliferative effects in Siha compared with MDA-MB-231 cells", "setting": "[2]", "result": "Larger antiproliferative effects"},
      {"measurement": "[LAC] increase", "setting": "[3]", "result": "~2", "unit": "µmol/h/mg"},
      {"measurement": "growth inhibitory activity", "setting": "breast 4T1 cancer cells", "result": "more significant growth inhibitory activity"},
      {"measurement": "increase in extracellular acidification rate (ECAR)", "setting": "intact CT26 cancer cells", "result": "+36 ± 11%"},
      {"measurement": "concentration at which complex I-dependent OCR reduction was detectable", "setting": "mitochondrial complex I", "result": 1, "unit": "µM"},
      {"measurement": "reversal of OCR inhibition upon succinate addition", "setting": "mitochondrial complex I; 10 mM succinate", "result": "full reversal of OCR inhibition"},
      {"measurement": "cytotoxic / growth inhibitory effects", "setting": "CT26 colon cancer cells", "result": "very limited effects"}
    ]}
  ]
}
